Results as given in US4505889A, “Protracted release microbiocidal article for aqueous systems” (Rohm and Haas Company, priority 1982, dated 1985).
≈ marks a conversion by molar mass, not a printed value.

How the values were obtained:
[1] = Release of active ingredient from solid Celite 545 composition stirred in deionized water, followed by ultraviolet spectroscopy; assay type: physicochemical; details: for time required to reach a saturated solution: solid composition on Celite 545 in deionized water; for Concentration in Solution at Elapsed Time: 1.28 g of 7% composition on Celite 545 in 800 ml deionized water, total release = 112 ppm
Method: To 13.28 g. of Celite®545 in each of three glass bottles was added 1 g. of the following isothiazolones in 20 ml. of methanol:
Each mixture was then stirred by hand with a spatula until it appeared to be uniformly mixed and free-flowing. Air drying, to remove methanol, affords solid product, 14.28 g., containing 7 weight % of active ingredient.
1.28 g. of each of the resulting solid microbiocidal compositions was stirred in 800 ml. of deionized water. The release of active ingredient was followed by analysis of the supernatant water by ultraviolet spectroscopy. Total release of active ingredient would give 112 ppm.

[2] = Rate of release and concentration of active ingredient from sealed cellulose film bags into deionized water, followed by ultraviolet spectroscopy; assay type: physicochemical; details: 1.28 g of 7% composition on Celite 545 in sealed 3-mil cellulose bag, 800 ml deionized water, complete release = 112 ppm
Description: There was sealed in bags of 3-mil cellulose film (3.5 in.^2 surface area) 1.28 g. of each of the three compositions prepared in Example 1 containing compounds A, B, and C, respectively. For comparison, 1.28 g. of a 7% active ingredient solid composition of Kathon®886 (a 3:1 weight ratio blend of 5-chloro-2-methyl-3-isothiazolone and 2-methyl-3-isothiazolone with 15 weight % of Mg(NO3)2 and 9 weight % of MgCl2 in aqueous solution containing 14% active ingredient available from the Rohm and Haas Company) absorbed on Celite®545 was sealed in a bag of 3-mil cellulose film (3.5 in.^2 surface area). The rate of release and concentration of active ingredient from the sealed bags into 800 ml. of deionized water was followed by ultraviolet spectroscopy. Complete release of active ingredient from each sample would give 112 ppm.

physchem = details: water
[3] = Water solubility of the isothiazolones; details: for solubility: water

Row | SMILES | time required to reach a saturated solution [1] | Concentration/Rate of Release ([2]; 1 day) | Concentration/Rate of Release ([2]; 5 days) | solubility (physchem) | Concentration in Solution at Elapsed Time ([1]; 0.75 hr.) | Concentration in Solution at Elapsed Time ([1]; 3.0 hr.) | Concentration in Solution at Elapsed Time ([1]; 66.0 hr.) | solubility ([3]; Water Solubility, Example 1 table) | solubility ([3]; Water Solubility, Example 3 table head) | Concentration in Solution at Elapsed Time ([1]; 23.0 hr.) | Water Solubility ([3]; Example 3 table head) | solubility [3]
1 | CCCCCCCCn1sccc1=O [A, 2-octyl-3-isothiazolone] | less than 1 hours | 27 ppm | 82 ppm | 500 µg/mL (≈ 2340 µM) | – | – | – | – | – | – | – | –
2 | O=c1c(Cl)c(Cl)sn1C1CCCCC1 [B, 4,5-dichloro-2-cyclohexyl-3-isothiazolone] | 1 to 3 h | 5 ppm | 11 ppm | – | 27 ppm | 39 ppm | 39 ppm | 40 µg/mL (≈ 159 µM) | 42 µg/mL (≈ 167 µM) | – | – | –
3 | CCCCCCCCn1sc(Cl)c(Cl)c1=O [Compound C, 4,5-dichloro-2-octyl-3-isothiazolone] | – | 0.4 ppm | 1.7 ppm | – | 7 ppm | 10 ppm | 14 ppm | – | – | 14 ppm | 14 ppm | 14 µg/mL (≈ 49.6 µM)
